Measured values from patent US20060183693A1, “Use of BIBN4096 in combination with other antimigraine drugs for the treatment of migraine” (Boehringer Ingelheim Pharma GmbH & Co. KG, priority 2001, published 2006).

Test system: facial skin vasodilation induced by electrical trigeminal ganglion stimulation
Assay: Facial skin blood flow (vasodilation) after electrical trigeminal ganglion stimulation, laser Doppler flowmetry
Format: in vivo
Conditions: anaesthetized male Wistar rat, 0.1 mg/kg i.v. 5 min prior to second stimulation
Method: Measurement of Facial Skin Blood Flow
Fasted male wistar rats (strain CHbb:THOM, 280-320 g) were anaesthetized with sodium pentobarbitone (initially with 60 mg/kg i.p. and maintained throughout the experiment with an intraperitoneal infusion of 30 mg/kg/h through a 23 G needle using a solution of 10 mg/ml). […] The trachea was cannulated and the animals were artificially respired (80 strokes/min) with room air supplemented with oxygen. The body temperature was maintained at 37° C. by an automated heating pad. The left femoral artery and the left femoral vein were cannulated for the continuous measurement of arterial blood pressure and intravenous administration of test compounds, respectively. Neuromuscular blockade was achieved by intravenous administration of pancuronium bromide (1 mg/kg/0.5 ml, 5 min prior to each electrical stimulation). Heart rate was derived from the blood pressure signal. Blood pressure and heart rate were continuously monitored throughout the course of the experiment to assess the level of anaesthesia and to monitor the cardiovascular effects of the drugs used in this study.
The animals were placed in a stereotaxic frame and a longitudinal incision was made in the scalp. […] The position of the electrodes in the trigeminal ganglia were checked visually at the end of each experiment following removal of the brain. […]

CN1C[C@H](C(=O)N[C@]2(C)O[C@@]3(O)[C@@H]4CCCN4C(=O)[C@H](Cc4ccccc4)N3C2=O)C[C@@H]2c3cccc4[nH]cc(c34)C[C@H]21 [DHE, Dihydroergotamin]
% of trigeminus stimulation (mean ± spread): 60.4 ± 4.1% | % inhibition compared to control value (vs saline control): 27.0%
